Results taken from US6703207B2, “Method of screening substances with a glycidyl methacrylate covered styrene-glycidyl methacrylate polymer” (priority 1996, dated 2004).
One block for each molecule: values may come before it.

What was measured:
[1] = test system: protein with a molecular weight of about 30 kDa; test: Isolation and competition with H-9-immobilized SG-EGDE particles, HeLa cell nuclear extracts; format: binding; conditions: for elution of the 30 kDa protein from H-9-immobilized particles by free drug: elution with 3 mM drug; for yield of the 30 kDa protein in competition experiment: free drug added simultaneously
Procedure: HeLa cell nuclear extracts (NE) were prepared according to the method as described previously (Dignam, J. D., Lebovitz, R. M. and Roeder, R. G. (1983). Accurate transcription by RNA pol II in a soluble extracts from isolated mammalian nucleic. Nucleic Acids Res 11. 1475-1489).

[2] = test system: protein with a molecular weight of about 110 kDa; test: Isolation and competition with DQ2511-immobilized particles, HeLa cytoplasmic fraction; format: binding; conditions: 1.0 M KCl eluate
Procedure: To these washed DQ2511-not-immobilized SG-EGDE particles and DQ2511-immobilized-SG-EGDE particles, 1 ml of the diluted cytoplasmic fraction was added and mixed. […] The wash solution and eluate solutions were stored at −80° C.

[3] = test system: protein with a molecular weight of about 170 kDa; test: Isolation and competition with DQ2511-immobilized particles, lysate of rat DRG cell; format: binding; conditions: concentrated crude lysate of rat DRG cell
Procedure: Microspheres and the concentrated crude lysate of rat DRG cell were mixed and centrifuged to separate substances binding to DQ2511 which was immobilized on particles from the mixture. The procedures of binding, washing and detection of protein were performed as described above. […] In the above procedure, about 10 ng of 170 kDa DQ2511-binding protein was obtained from 1 mg of the DQ2511-immobilized SG-EGDE particles.

Ref-1 [4] = biological target: T1, Ref-1 (Homo sapiens, UniProt P27695); test: AP nuclease activity of recombinant Ref-1 on AP plasmid DNA; format: biochemical; conditions: supercoiled AP plasmid DNA to open circular
T1 construct: His6 (pET14b) (N); made in house
Procedure: First, concerning AP nuclease activity, the plasmid pBluescript SK+DNA (50 μg) was treated with 50 mM sodium citrate (pH 3.5) at 60° C. for 15 minutes, followed by dialysis in 50 mM Tris-HCl (pH 7.4) at 4° C. for about 24 hours.

[5] = biological target: T2, Ref-1 amino acid sequence 72 a.a. to 88 a.a. (Homo sapiens, UniProt P27695); test: Binding of Ref-1 fragment 72 a.a. to 88 a.a. to E3330-immobilized particles
T2 construct: made in house

Ref-1 [6] = biological target: T1, Ref-1; test: Far Western method using 14C-labeled E3330; format: binding
[7] = biological target: recombinant protein of Ref-1 (Homo sapiens, UniProt P27695); test: Binding of recombinant Ref-1 to E3330-immobilized particles
[8] = biological target: T3, Ref-1 acting on p50/p50 homo-dimer or p65/p50 hetero-dimer (Homo sapiens, UniProt P27695); test: Gel-shift assay with recombinant p65 and p50 subunits; format: biochemical
T3 construct: His6 (pET14b) (N); made in house; p50 and p65: baculovirus expression system

[9] = biological target: T4, Ref-1 redox activity on NF-κB (Homo sapiens, UniProt P27695); test: Gel-shift assay of NF-κB DNA binding, NF-κB partially purified from Jurkat cells; format: biochemical
T4 construct: His6 (pET14b) (N); made in house; NF-κB: partially purified from Jurkat cells
Procedure: Prior to the conduction of the investigation, there are some considerations. […] There are two cases; one is an oxidized condition where these cystine residues are bound to each other through an S-S bond; and the other one is a reduced condition where they are individually existing with an SH-group. Therefore, NF-κB was treated with dithiothreitol (DTT) that is known as a reductant to make the state of NF-κB to be reduction.

Solubility in water = format: physicochemical
[10] = biological target: protein with a molecular weight of about 38 kDa (Ref-1) (Homo sapiens, UniProt P27695); test: Isolation and competitive binding-inhibition with E3330-immobilized SG-EGDE particles, Jurkat cytoplasmic P.5 fraction
[11] = test system: proteins with a molecular weight of about 60, 38, and 27 kDa; test: Isolation and competition with E3330-immobilized SG-EGDE particles, Jurkat nuclear extract; format: binding; conditions: 1M KCl eluate
Procedure: From the purification using P.1, there was not observed any specific protein band specifically eluted from E3330-immobilized particles.
The identification of the specific proteins were conducted by electrophoresis using SDS-PAGE.

NF-κB = test: Transfection of NF-κB-regulated luciferase plasmid into Jurkat cells; format: cell-based; conditions: luciferase genes regulated by NF-κB
Description: The functions of NH2-E3330 were compared with those of E3330 with respect to transcriptional activation abilities of NF-κB.

T4 sequence (P27695 whole entry): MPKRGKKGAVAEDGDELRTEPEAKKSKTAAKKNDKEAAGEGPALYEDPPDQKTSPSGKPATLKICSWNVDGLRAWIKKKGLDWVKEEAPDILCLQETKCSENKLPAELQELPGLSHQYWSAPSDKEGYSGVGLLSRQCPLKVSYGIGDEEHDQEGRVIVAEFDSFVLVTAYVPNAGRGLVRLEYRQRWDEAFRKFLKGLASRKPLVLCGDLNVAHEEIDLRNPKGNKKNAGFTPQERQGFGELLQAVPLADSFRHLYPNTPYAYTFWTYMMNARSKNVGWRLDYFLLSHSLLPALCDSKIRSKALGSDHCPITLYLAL
protein with a molecular weight of about 38 kDa (Ref-1), sequence (P27695 whole entry): as above
T1 sequence (P27695 whole entry): as above
recombinant protein of Ref-1, sequence (P27695 whole entry): as above
T3 sequence (P27695 whole entry): as above

SMILES: CNCCNS(=O)(=O)c1cccc2cnccc12 [H-8]
elution of the 30 kDa protein from H-9-immobilized particles by free drug [1]: same protein band was obtained
yield of the 30 kDa protein in competition experiment [1]: lower yield

protein band not observed in reference control (specific binding) [2]: specifically binding to DQ2511
SMILES: CNC(=O)c1cccc(NCC(=O)NCCc2ccc(OC)c(OC)c2)c1 [DQ2511]
protein obtained from immobilized particles (binding ability) [3]: possessing DQ2511-binding ability

SMILES: NCCNS(=O)(=O)c1cccc2cnccc12 [H-9]
protein band not observed in reference control (specific binding) ([1]; HeLa nuclear extract, SDS-PAGE silver staining): specifically binding to H-9
elution of the 30 kDa protein from H-9-immobilized particles by free drug [1]: same protein band was obtained
yield of the 30 kDa protein in competition experiment [1]: lower yield

AP nuclease activity of Ref-1 (Ref-1 [4]): not inhibited
binding in Far Western method (Ref-1 [6]): bound to Ref-1
binding of recombinant Ref-1 to immobilized drug [7]: specifically bound to E3330
enhancement of DNA-binding ability of p50/p50 homo-dimer or p65/p50 hetero-dimer by Ref-1 [8]: reduced
enhancement of the DNA-binding activity of NF-κB by Ref-1 [9]: reduced
increase in the DNA-binding activity of NF-κB by DTT [9]: did not inhibit
solubility in water (Solubility in water): insoluble in water
protein band not observed in reference control (specific binding) ([10]; P.5 fraction, 1 M KCl eluate, SDS-PAGE silver staining): specifically binding to E3330
yield of the about 38 kDa protein in competitive binding-inhibitory experiment ([10]; free E3330 at the same moles as immobilized NH2-E3330): lowered
protein bands not observed in reference control (specific binding) [11]: specifically binding to E3330
SMILES: CCCCCCCCC/C(=C\C1=C(C)C(=O)C(OC)=C(OC)C1=O)C(=O)O [E3330]
binding of recombinant protein possessing only 72 a.a. to 88 a.a. of Ref-1 [5]: confirmation of its binding ability against E3330
transcriptional activation abilities of NF-κB (NF-κB): reduced
